Reference: US7829665B2 (priority 2005, dated 2010)

What was measured:
[1] = tested on: HCV sub-genomic replicon in GS4.3 cells (HuH-7 hepatoma cells); test: Quantitation by ELISA of Neomycin phosphotransferase II (NPTII) in the HCV sub-genomic replicon, GS4.3; type: cell-based, hepatitis C virus; settings: Hepatitis C virus, Huh-7; GS4.3 cells, 72 h incubation, NPTII ELISA; read-out: Replicon EC50
In short: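 HuH-7 GS4.3 cells carrying HCV sub-genomic replicon 1377/NS3-3′, treated 72 h at 37 °C without G418 with 3-fold dilutions from 10 μM to 56 pM (1% DMSO). NPTII in cell lysates measured by direct ELISA with TMB readout at 450 nm. EC50 from 4-parameter fit of percent DMSO-control signal.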

[2] = biological target: T1, full-length NS3/NS4A-2 (HCV NS3 protease) (Hepatitis C virus genotype 1a, UniProt P27958); test: NS3-NS4 protease assay / NS3 inhibition assay (RETS1 substrate, fluorescence kinetic read); type: biochemical; settings: recombinant E. coli or Baculovirus full-length NS3 with NS4A-2; read-out: NS3-NS4 IC50
T1 construct: Recombinant E. coli or Baculovirus full-length NS3 was diluted to 3.33 μM with assay buffer; made in house; host or cells: E. coli or baculovirus (BV) expression system
T1 sequence (P27958 1027-1657): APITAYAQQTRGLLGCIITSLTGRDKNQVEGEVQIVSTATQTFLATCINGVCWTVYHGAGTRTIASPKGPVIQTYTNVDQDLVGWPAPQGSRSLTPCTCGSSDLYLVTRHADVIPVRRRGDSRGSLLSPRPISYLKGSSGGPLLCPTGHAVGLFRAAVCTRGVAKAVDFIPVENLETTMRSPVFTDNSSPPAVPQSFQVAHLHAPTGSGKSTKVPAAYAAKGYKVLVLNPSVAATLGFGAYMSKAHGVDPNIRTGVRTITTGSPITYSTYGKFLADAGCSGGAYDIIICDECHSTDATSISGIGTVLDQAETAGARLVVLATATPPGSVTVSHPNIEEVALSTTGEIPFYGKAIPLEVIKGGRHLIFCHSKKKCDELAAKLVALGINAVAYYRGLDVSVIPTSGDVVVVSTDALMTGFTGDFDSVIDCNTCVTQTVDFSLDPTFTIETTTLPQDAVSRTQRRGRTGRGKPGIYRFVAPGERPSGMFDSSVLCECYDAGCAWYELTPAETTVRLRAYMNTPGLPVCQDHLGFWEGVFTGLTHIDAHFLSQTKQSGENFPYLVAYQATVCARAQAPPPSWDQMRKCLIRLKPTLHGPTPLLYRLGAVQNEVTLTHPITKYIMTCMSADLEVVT
In short: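 Full-length NS3 from E. coli (2 nM in assay) or baculovirus (3 nM) was precomplexed with excess NS4A-2 peptide, then preincubated 10 min at room temperature with serially diluted compounds starting at 50 microM. Reaction was started with RETS1 substrate at 8 μM before addition and read kinetically for 30 min (ex 335/em 495 nm). Four-parameter IC50s were converted to Ki by Cheng-Prusoff using Km 2.03 μM (E. coli) or 1.74 μM (BV).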

| SMILES | EC50 [1] [nM] | IC50 [2] [nM] |
| --- | --- | --- |
| O=C1N[C@]2(C(=O)NS(=O)(=O)C3CC3)C[C@H]2/C=C\CCCCC[C@H](NCc2ccccc2)C(=O)N2C[C@H](OC(=O)N3Cc4cccc(F)c4C3)C[C@@H]12 [Compound 905] | < 100 | < 100 |
| CC(C)(C)OC(=O)N[C@H]1CCCCC/C=C\[C@@H]2C[C@@]2(C(=O)NS(=O)(=O)C(C)(C)C)NC(=O)[C@@H]2C[C@@H](OC(=O)N3Cc4ccccc4C3)CN2C1=O [Compound 102] | < 1000 | < 100 |
| CCCC1(S(=O)(=O)NC(=O)[C@@]23C[C@H]2/C=C\CCCCC[C@H](NC(=O)OC(C)(C)C)C(=O)N2C[C@H](OC(=O)N4Cc5ccccc5C4)C[C@H]2C(=O)N3)CC1 [Compound 104] | < 100 | < 100 |
| CC(C)(C)OC(=O)N[C@H]1CCCCC/C=C\[C@@H]2C[C@@]2(C(=O)O)NC(=O)[C@@H]2C[C@@H](OC(=O)N3Cc4ccc(OCCn5cccn5)cc4C3)CN2C1=O [Compound 130] | < 10000 | < 100 |
| CC(C)(C)OC(=O)N[C@H]1CCCCCCC[C@@H]2C[C@@]2(C(=O)NS(=O)(=O)C2CC2)NC(=O)[C@@H]2C[C@@H](OC(=O)N3Cc4cccc(F)c4C3)CN2C1=O [Compound 268] | < 100 | < 100 |
| O=C1N[C@]2(C(=O)NS(=O)(=O)C3CC3)C[C@H]2/C=C\CCCCC[C@H](NCc2cccc(C(F)(F)F)c2)C(=O)N2C[C@H](OC(=O)N3Cc4cccc(F)c4C3)C[C@@H]12 [Compound 901, (1S,4R,6S,14S,18R)-14-(3-(trifluoromethyl)benzylamino)-4-(cyclopropanesulfonyl)aminocarbonyl-18-(4-fluoro-1,3-dihydro-isoindole-2-carbonyloxyl)-2,15-dioxo-3,16-diaza-tricyclo[14.3.0.0^4,6]nonadec-7-ene] | < 100 | < 100 |
| CN(C(=O)[C@@]12C[C@H]1/C=C\CCCCC[C@H](NC(=O)OC(C)(C)C)C(=O)N1C[C@H](OC(=O)N3Cc4cccc(F)c4C3)C[C@H]1C(=O)N2)S(=O)(=O)C1CC1 [Compound 264] | > 10000 | < 10000 |
| O=C(CCC(F)(F)F)N[C@H]1CCCCC/C=C\[C@@H]2C[C@@]2(C(=O)O)NC(=O)[C@@H]2C[C@@H](OC(=O)N3Cc4ccccc4C3)CN2C1=O [Compound 136] | > 10000 | < 100 |
| COCC1c2cccc(F)c2CCN1C(=O)O[C@@H]1CC2C(=O)N[C@]3(C(=O)NS(=O)(=O)C4CC4)C[C@H]3/C=C\CCCCC[C@H](N)C(=O)N2C1 (some centres unmarked) [Compound 106] | > 10000 | < 1000 |
| CC(C)(C)OCC(=O)N[C@H]1CCCCC/C=C\[C@@H]2C[C@@]2(C(=O)NS(=O)(=O)C2CC2)NC(=O)[C@@H]2C[C@@H](OC(=O)N3Cc4cccc(Cl)c4C3)CN2C1=O [Compound 266] | < 100 | < 100 |
| O=C1N[C@]2(C(=O)NS(=O)(=O)C3CC3)C[C@H]2/C=C\CCCCC[C@H](Nc2c(N3CCC3)c(=O)c2=O)C(=O)N2C[C@H](OC(=O)N3Cc4cccc(Cl)c4C3)C[C@@H]12 [Compound 241, (2R,6S,13aS,14aR,16aS,Z)-6-(2-(azetidin-1-yl)-3,4-dioxocyclobut-1-enylamino)-14a-(cyclopropylsulfonylcarbamoyl)-5,16-dioxo-1,2,3,5,6,7,8,9,10,11,13a,14,14a,15,16,16a-hexadecahydrocyclopropa[e]pyrrolo[1,2-a][1,4]diazacyclopentadecin-2-yl 4-chloroisoindoline-2-carboxylate] | < 1000 | < 100 |
| CC(C)(C)OC(=O)N[C@H]1CCCCC/C=C\[C@@H]2C[C@@]2(C(=O)O)NC(=O)[C@@H]2C[C@@H](OC(=O)N3Cc4cccc(Cl)c4C3)CN2C1=O [Compound 113] | < 1000 | < 100 |
| O=C1N[C@]2(C(=O)NS(=O)(=O)C3CC3)C[C@H]2/C=C\CCCCC[C@H](NCCC(F)(F)F)C(=O)N2C[C@H](OC(=O)N3Cc4cccc(F)c4C3)C[C@@H]12 [Compound 900] | < 100 | < 100 |
| CN1CCN(c2ccc3c(c2)CN(C(=O)O[C@@H]2C[C@H]4C(=O)N[C@]5(C(=O)O)C[C@H]5/C=C\CCCCC[C@H](NC(=O)OC(C)(C)C)C(=O)N4C2)C3)CC1 [Compound 175] | > 10000 | < 100 |
| CC(C)(C)OC(=O)N[C@H]1CCCCC/C=C\[C@@H]2C[C@@]2(C(=O)NCCF)NC(=O)[C@@H]2C[C@@H](OC(=O)N3Cc4cccc(F)c4C3)CN2C1=O [Compound 611] | < 10000 | < 1000 |
| CC(C)(C)OC(=O)N[C@H]1CCCCC/C=C\[C@@H]2C[C@@]2(C(=O)NS(=O)(=O)C2CC2)NC(=O)[C@@H]2C[C@@H](OC(=O)N3Cc4cccc(C(F)(F)F)c4C3)CN2C1=O [Compound 170] | < 100 | < 100 |
| CC(=O)N[C@H](C(=O)N[C@H]1CCCCC/C=C\[C@@H]2C[C@@]2(C(=O)NS(=O)(=O)C2CC2)NC(=O)[C@@H]2C[C@@H](OC(=O)N3Cc4cccc(Cl)c4C3)CN2C1=O)C1CCCCC1 [Compound 262] | < 1000 | < 100 |

| SMILES | EC50 [1] [nM] | IC50 [2] [nM] |
| --- | --- | --- |
| O=C(N[C@H]1CCCCC/C=C\[C@@H]2C[C@@]2(C(=O)NC(=O)C2CC2)NC(=O)[C@@H]2C[C@@H](OC(=O)N3CCc4ccccc4C3)CN2C1=O)OC1CCCC1 [Compound 706] | < 100 | < 100 |
| CC(C)(C)OC(=O)N[C@H]1CCCCC/C=C\[C@@H]2C[C@@]2(C(=O)NS(=O)(=O)c2cc(Cl)sc2Cl)NC(=O)[C@@H]2C[C@@H](OC(=O)N3Cc4cccc(Cl)c4C3)CN2C1=O [Compound 172] | < 100 | < 100 |
| O=C(N[C@H]1CCCCC/C=C\[C@@H]2C[C@@]2(C(=O)NS(=O)(=O)c2ccccc2)NC(=O)[C@@H]2C[C@@H](OC(=O)N3CCc4ccccc4C3)CN2C1=O)OC1CCCC1 [Compound 117] | < 100 | < 100 |
| CC(C)OC(=O)N[C@H]1CCC(F)(F)CC/C=C\[C@@H]2C[C@@]2(C(=O)NS(=O)(=O)C2CC2)NC(=O)[C@@H]2C[C@@H](OC(=O)N3Cc4ccccc4C3)CN2C1=O [Compound 1012] | < 100 | < 100 |
| C[C@@H](NC(=O)[C@@]12C[C@H]1/C=C\CCCCC[C@H](NC(=O)OC(C)(C)C)C(=O)N1C[C@H](OC(=O)N3Cc4cccc(F)c4C3)C[C@H]1C(=O)N2)c1ccc(F)cn1 [Compound 629] | < 10000 | < 1000 |
| CNC(=O)[C@H](NC(=O)[C@@]12C[C@H]1/C=C\CCCCC[C@H](NC(=O)OC(C)(C)C)C(=O)N1C[C@H](OC(=O)N3Cc4cccc(F)c4C3)C[C@H]1C(=O)N2)c1ccc(F)cc1 [Compound 632] | < 10000 | < 1000 |
| CC(C)(C)OC(=O)N[C@H]1CCCCC/C=C\[C@@H]2C[C@@]2(C(N)=O)NC(=O)[C@@H]2C[C@@H](OC(=O)N3Cc4cccc(F)c4C3)CN2C1=O [Compound 648] | > 10000 | < 1000 |
| O=C(N[C@H]1CCCCC/C=C\[C@@H]2C[C@@]2(C(=O)NS(=O)(=O)N2CC(F)(F)C2)NC(=O)C2C[C@@H](OC(=O)N3Cc4cccc(F)c4C3)CN2C1=O)OC1CCCC1 (some centres unmarked) [Compound 229] | < 1000 | < 100 |
| CC(C)N(C)S(=O)(=O)NC(=O)[C@@]12C[C@H]1/C=C\CCCCC[C@H](NC(=O)OC(C)(C)C)C(=O)N1C[C@H](OC(=O)N3Cc4ccccc4C3)C[C@H]1C(=O)N2 [Compound 201] | < 100 | < 100 |
| O=C(N[C@H]1CCCCC/C=C\[C@@H]2C[C@@]2(C(=O)NS(=O)(=O)N2CCC2)NC(=O)[C@@H]2C[C@@H](OC(=O)N3CCc4ccccc4C3)CN2C1=O)OC1CCCC1 [Compound 233] | < 100 | < 100 |
| CC(C)(C)OC(=O)N[C@H]1CCCCC/C=C\[C@@H]2C[C@@]2(C(=O)NCCN2CCCCC2)NC(=O)[C@@H]2C[C@@H](OC(=O)N3Cc4cccc(F)c4C3)CN2C1=O [Compound 604] | > 10000 | > 10000 |
| CCOC1(S(=O)(=O)NC(=O)[C@@]23C[C@H]2/C=C\CCCCC[C@H](NC(=O)OC(C)(C)C)C(=O)N2C[C@H](OC(=O)N4Cc5cccc(Cl)c5C4)C[C@H]2C(=O)N3)CC1 [Compound 165] | < 100 | < 100 |
| O=C1N[C@]2(C(=O)NS(=O)(=O)C3CC3)C[C@H]2/C=C\CCCCC[C@H](NCc2cc(F)cc(F)c2)C(=O)N2C[C@H](OC(=O)N3Cc4cccc(F)c4C3)C[C@@H]12 [Compound 903] | < 100 | < 100 |
| CN(C)C(=S)N[C@H]1CCCCC/C=C\[C@@H]2C[C@@]2(C(=O)NS(=O)(=O)C2CC2)NC(=O)[C@@H]2C[C@@H](OC(=O)N3Cc4cccc(F)c4C3)CN2C1=O [Compound 922] | < 1000 | < 100 |
| O=C(N[C@H]1CCCCC/C=C\[C@@H]2C[C@@]2(C(=O)NS(=O)(=O)C2CC2)NC(=O)[C@@H]2CCCN2C1=O)C1CC1 [Compound 317] | > 10000 | < 1000 |
| O=C(NC1CCCC1)N[C@H]1CCCCC/C=C\[C@@H]2C[C@@]2(C(=O)NS(=O)(=O)C2CC2)NC(=O)C2C[C@@H](OC(=O)N3Cc4cccc(Cl)c4C3)CN2C1=O (some centres unmarked) [Compound 180] | < 100 | < 100 |
| O=C(N[C@H]1CCCCC/C=C\[C@@H]2C[C@@]2(C(=O)O)NC(=O)[C@@H]2C[C@@H](OC(=O)N3Cc4cccc(Cl)c4C3)CN2C1=O)OC1CCCC1 [Compound 138] | < 1000 | < 100 |
